This note sets out measurements from BindingDB's records for doi:10.1021/acs.jmedchem.0c00766 (Istituto Italiano Di Tecnologia, 2020).

The target of this test is Serine-protein kinase ATM (Homo sapiens, UniProt Q13315). Briefly: Inhibition of ATM (unknown origin) assessed as ATM-dependent phosphorylation using GST-p53 ser15 as substrate.
Serine-protein kinase ATM, sequence (Q13315 whole entry): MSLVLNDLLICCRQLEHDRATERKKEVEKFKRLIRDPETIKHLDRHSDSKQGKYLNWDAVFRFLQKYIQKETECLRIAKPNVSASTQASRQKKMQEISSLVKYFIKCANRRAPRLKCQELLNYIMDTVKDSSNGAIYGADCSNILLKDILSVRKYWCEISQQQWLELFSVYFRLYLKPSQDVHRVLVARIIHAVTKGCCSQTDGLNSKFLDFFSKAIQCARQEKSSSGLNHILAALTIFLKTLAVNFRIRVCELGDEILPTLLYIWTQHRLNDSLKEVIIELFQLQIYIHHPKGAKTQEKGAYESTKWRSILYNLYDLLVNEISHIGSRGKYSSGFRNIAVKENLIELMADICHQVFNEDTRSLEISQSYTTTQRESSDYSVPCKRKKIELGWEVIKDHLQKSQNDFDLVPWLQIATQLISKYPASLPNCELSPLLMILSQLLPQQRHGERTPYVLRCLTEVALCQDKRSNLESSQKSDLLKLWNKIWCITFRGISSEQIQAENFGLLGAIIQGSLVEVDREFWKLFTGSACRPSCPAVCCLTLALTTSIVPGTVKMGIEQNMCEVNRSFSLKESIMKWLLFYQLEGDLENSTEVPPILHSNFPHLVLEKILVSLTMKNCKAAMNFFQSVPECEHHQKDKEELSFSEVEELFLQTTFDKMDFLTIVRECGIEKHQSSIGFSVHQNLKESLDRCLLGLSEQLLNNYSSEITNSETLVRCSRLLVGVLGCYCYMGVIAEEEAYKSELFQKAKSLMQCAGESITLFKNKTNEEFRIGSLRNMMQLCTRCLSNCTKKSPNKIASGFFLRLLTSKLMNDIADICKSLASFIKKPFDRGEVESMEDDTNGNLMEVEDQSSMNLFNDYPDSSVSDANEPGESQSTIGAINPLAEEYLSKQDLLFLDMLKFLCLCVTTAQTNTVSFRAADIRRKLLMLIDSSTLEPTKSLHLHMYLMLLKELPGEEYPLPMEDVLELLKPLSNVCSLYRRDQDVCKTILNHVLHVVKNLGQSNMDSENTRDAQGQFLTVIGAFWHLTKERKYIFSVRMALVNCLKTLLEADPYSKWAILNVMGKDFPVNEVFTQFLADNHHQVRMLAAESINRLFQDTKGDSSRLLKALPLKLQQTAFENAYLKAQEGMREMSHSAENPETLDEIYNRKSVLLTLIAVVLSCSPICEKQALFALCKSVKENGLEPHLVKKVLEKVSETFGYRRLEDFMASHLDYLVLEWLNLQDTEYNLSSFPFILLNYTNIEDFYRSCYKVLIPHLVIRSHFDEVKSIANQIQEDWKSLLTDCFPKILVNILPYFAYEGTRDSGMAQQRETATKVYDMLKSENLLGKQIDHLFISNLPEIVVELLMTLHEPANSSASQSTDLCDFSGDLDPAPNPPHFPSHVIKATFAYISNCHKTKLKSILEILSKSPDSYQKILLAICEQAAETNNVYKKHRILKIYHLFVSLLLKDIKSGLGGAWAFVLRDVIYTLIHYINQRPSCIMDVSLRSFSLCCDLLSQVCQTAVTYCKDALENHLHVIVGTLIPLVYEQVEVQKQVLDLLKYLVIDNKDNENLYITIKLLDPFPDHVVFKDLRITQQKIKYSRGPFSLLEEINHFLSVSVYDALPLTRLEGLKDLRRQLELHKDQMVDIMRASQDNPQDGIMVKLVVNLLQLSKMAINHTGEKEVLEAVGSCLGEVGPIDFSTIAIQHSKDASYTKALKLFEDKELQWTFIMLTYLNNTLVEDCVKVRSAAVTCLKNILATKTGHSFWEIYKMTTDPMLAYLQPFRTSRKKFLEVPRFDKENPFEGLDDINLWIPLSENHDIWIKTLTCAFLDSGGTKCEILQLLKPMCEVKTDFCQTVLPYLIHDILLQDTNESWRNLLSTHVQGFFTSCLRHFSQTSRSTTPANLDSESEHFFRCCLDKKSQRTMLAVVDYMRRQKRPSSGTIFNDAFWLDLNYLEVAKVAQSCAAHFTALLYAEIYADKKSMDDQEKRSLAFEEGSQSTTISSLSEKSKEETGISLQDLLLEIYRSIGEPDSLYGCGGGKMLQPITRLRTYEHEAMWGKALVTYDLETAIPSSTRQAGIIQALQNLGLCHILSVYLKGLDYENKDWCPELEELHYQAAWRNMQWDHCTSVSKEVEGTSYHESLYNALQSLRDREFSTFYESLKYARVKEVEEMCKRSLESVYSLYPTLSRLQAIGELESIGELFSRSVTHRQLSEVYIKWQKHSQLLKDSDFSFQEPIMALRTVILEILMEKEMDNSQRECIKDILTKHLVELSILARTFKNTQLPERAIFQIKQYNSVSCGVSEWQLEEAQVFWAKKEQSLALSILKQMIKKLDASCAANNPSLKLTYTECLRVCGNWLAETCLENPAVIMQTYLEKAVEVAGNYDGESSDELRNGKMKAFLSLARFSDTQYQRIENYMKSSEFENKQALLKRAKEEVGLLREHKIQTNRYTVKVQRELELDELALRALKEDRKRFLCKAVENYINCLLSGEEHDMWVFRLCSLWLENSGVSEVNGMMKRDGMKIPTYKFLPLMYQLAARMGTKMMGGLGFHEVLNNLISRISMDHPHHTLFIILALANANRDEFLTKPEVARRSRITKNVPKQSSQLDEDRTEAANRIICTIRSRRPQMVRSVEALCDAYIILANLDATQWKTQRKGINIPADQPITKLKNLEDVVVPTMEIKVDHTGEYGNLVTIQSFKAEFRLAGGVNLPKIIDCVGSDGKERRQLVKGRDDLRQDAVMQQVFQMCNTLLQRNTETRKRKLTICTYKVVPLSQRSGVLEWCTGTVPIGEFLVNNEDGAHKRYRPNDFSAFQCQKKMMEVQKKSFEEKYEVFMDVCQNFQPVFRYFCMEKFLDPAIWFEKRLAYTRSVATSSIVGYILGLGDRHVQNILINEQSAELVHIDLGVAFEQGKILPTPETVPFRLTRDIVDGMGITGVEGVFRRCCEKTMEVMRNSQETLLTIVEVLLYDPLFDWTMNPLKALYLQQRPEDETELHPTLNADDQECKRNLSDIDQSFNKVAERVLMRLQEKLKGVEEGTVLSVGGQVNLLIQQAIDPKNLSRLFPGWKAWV

Turning to `CC(C)n1c(=O)n(C)c2cnc3cc(F)c(-c4ccc(OCCCN5CCCCC5)nc4)cc3c21` [Azd-1390], the IC50 (commonly the concentration that inhibits the measured activity by half) turned out to be 0.09 nM.
